This note sets out measurements from ChEMBL document CHEMBL5550120, “SuFEx-based chemical diversification for the systematic discovery of CRBN molecular glues” (Bioorg Med Chem, 2024).

The source made the active and inactive calls. No cut-off for these calls is given here.

Chain of DNA-binding protein Ikaros (Homo sapiens) (Q13422 whole entry): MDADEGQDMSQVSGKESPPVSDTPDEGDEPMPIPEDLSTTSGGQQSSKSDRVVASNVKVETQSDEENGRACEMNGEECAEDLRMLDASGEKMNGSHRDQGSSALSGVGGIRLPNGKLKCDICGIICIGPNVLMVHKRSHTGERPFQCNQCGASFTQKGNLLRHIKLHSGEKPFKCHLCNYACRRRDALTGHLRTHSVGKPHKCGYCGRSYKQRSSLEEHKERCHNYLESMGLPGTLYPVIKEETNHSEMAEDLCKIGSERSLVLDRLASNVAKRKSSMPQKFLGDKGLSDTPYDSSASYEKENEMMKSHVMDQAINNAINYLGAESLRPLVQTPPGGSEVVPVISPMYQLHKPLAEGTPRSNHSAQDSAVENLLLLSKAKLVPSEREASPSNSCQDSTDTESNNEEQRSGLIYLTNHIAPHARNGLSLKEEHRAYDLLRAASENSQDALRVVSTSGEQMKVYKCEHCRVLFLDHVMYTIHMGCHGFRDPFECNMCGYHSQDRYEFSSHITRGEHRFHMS

The target in one assay is T1, Protein cereblon/Eukaryotic peptide chain release factor GTP-binding subunit ERF3A (Homo sapiens, UniProt Q96SW2+P15170). The assay can be described thus: Molecular glue activity at CRBN/GSPT1 in CRBN depleted human MV4-11 cells assessed as induction of GSPT1 degradation at 3 uM measured after 3 hrs by immunoblot analysis. Type of assay: cell-based.
T1 sequence (P15170 whole entry, looked up): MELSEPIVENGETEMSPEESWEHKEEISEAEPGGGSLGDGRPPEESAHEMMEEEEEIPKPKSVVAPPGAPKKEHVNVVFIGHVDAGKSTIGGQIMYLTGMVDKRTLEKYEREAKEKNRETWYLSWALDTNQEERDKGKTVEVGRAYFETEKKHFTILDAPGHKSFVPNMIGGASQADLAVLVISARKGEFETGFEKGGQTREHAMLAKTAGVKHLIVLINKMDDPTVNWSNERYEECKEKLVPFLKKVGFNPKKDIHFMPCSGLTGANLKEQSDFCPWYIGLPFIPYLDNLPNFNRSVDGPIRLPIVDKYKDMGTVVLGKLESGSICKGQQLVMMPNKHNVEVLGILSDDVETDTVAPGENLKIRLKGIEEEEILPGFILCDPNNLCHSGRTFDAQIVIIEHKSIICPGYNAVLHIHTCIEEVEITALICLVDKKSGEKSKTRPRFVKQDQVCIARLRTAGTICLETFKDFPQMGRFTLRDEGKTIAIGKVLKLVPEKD
T1 sequence (Q96SW2 whole entry, looked up): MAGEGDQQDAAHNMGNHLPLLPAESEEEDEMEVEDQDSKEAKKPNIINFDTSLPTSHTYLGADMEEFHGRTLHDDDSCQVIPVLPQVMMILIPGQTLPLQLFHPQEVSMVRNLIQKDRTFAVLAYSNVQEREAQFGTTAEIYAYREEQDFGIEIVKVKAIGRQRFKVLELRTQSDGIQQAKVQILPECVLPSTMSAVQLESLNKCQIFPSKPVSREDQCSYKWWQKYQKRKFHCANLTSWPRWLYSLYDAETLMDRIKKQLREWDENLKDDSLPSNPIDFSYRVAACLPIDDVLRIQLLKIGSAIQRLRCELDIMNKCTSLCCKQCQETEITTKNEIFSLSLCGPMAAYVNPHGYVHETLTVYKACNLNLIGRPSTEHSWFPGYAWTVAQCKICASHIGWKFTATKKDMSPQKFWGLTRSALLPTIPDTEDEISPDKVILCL
With `Cc1cccc(Cl)c1OCCNS(=O)(=O)Nc1ccc2c(c1)CN(C1CCC(=O)NC1=O)C2=O` (configuration not stated), the outcome was inactive.

The target of a further assay is T1, Protein cereblon/Eukaryotic peptide chain release factor GTP-binding subunit ERF3A. The assay can be described thus: Molecular glue activity at CRBN/GSPT1 in human MV4-11 cells harboring GSPT1 G575N mutant assessed as induction of GSPT1 degradation at 3 uM measured after 3 hrs by immunoblot analysis. Type of assay: cell-based.
With `Cc1cccc(Cl)c1OCCNS(=O)(=O)Nc1ccc2c(c1)CN(C1CCC(=O)NC1=O)C2=O` (configuration not stated), the outcome was inactive.

The next assay shares this target. In words: Molecular glue activity at CRBN/GSPT1 in CRBN depleted human BE2C cells assessed as induction of GSPT1 degradation at 3 uM measured after 3 hrs by immunoblot analysis. Type of assay: cell-based.
With `Cc1cccc(Cl)c1OCCNS(=O)(=O)Nc1ccc2c(c1)CN(C1CCC(=O)NC1=O)C2=O` (configuration not stated), the result was inactive.

For a further assay the target is unchanged. The assay can be described thus: Molecular glue activity at CRBN/GSPT1 in human BE2C cells harboring GSPT1 G575N mutant assessed as induction of GSPT1 degradation at 3 uM measured after 3 hrs by immunoblot analysis. Type of assay: cell-based. For orientation: A western blot detects proteins with antibodies after separation by electrophoresis.
For `Cc1cccc(Cl)c1OCCNS(=O)(=O)Nc1ccc2c(c1)CN(C1CCC(=O)NC1=O)C2=O` (configuration not stated), the result was inactive.

The target is the same in the next assay. The assay can be described thus: Molecular glue activity at CRBN/HiBiT-tagged GSPT1 in human MOLT-4 cells assessed as induction of GSPT1 degradation at 3 uM pretreated with pomalidomide at 25 uM for 1 hr followed by compound treatment and measured after 3 hrs by immunoblot analysis. Type of assay: cell-based.
Take `Cc1cccc(Cl)c1OCCNS(=O)(=O)Nc1ccc2c(c1)CN(C1CCC(=O)NC1=O)C2=O` (configuration not stated): the result was inactive.

A further assay has the same target. In words: Molecular glue activity at CRBN/HiBiT-tagged GSPT1 in human MV4-11 cells assessed as induction of GSPT1 degradation at 3 uM pretreated with pomalidomide at 25 uM for 1 hr followed by compound treatment and measured after 3 hrs by immunoblot analysis. Type of assay: cell-based.
As for `Cc1cccc(Cl)c1OCCNS(=O)(=O)Nc1ccc2c(c1)CN(C1CCC(=O)NC1=O)C2=O` (configuration not stated), the result was inactive.

Another assay has the same target. In words: Molecular glue activity at CRBN/HiBiT-tagged GSPT1 in human BE2C cells assessed as induction of GSPT1 degradation at 3 uM pretreated with pomalidomide at 25 uM for 1 hr followed by compound treatment and measured after 3 hrs by immunoblot analysis. Type of assay: cell-based. A general note: HiBiT is a short tag that completes a luciferase, so light tracks the accessible tagged protein.
In the case of `Cc1cccc(Cl)c1OCCNS(=O)(=O)Nc1ccc2c(c1)CN(C1CCC(=O)NC1=O)C2=O` (configuration not stated), the outcome was inactive.

The target is the same in another assay. In words: Molecular glue activity at CRBN/HiBiT-tagged GSPT1 in human MOLT-4 cells assessed as induction of GSPT1 degradation at 3 uM pretreated with MLN4924 at 1 uM for 1 hr followed by compound treatment and measured after 3 hrs by immunoblot analysis. Type of assay: cell-based.
Consider `Cc1cccc(Cl)c1OCCNS(=O)(=O)Nc1ccc2c(c1)CN(C1CCC(=O)NC1=O)C2=O` (configuration not stated), for which the result was inactive.

The target is the same in another assay. In words: Molecular glue activity at CRBN/HiBiT-tagged GSPT1 in human MV4-11 cells assessed as induction of GSPT1 degradation at 3 uM pretreated with MLN4924 at 1 uM for 1 hr followed by compound treatment and measured after 3 hrs by immunoblot analysis. Type of assay: cell-based.
Consider `Cc1cccc(Cl)c1OCCNS(=O)(=O)Nc1ccc2c(c1)CN(C1CCC(=O)NC1=O)C2=O` (configuration not stated), for which the outcome was inactive.

A further assay shares this target. In words: Molecular glue activity at CRBN/HiBiT-tagged GSPT1 in human BE2C cells assessed as induction of GSPT1 degradation at 3 uM pretreated with MLN4924 at 1 uM for 1 hr followed by compound treatment and measured after 3 hrs by immunoblot analysis. Type of assay: cell-based.
`Cc1cccc(Cl)c1OCCNS(=O)(=O)Nc1ccc2c(c1)CN(C1CCC(=O)NC1=O)C2=O` (configuration not stated): the result was inactive.

The next assay shares this target. In words: Molecular glue activity at CRBN/HiBiT-tagged GSPT1 in human MOLT-4 cells assessed as induction of GSPT1 degradation at 3 uM pretreated with carfilzomib at 500 nM for 1 hr followed by compound treatment and measured after 3 hrs by immunoblot analysis. Type of assay: cell-based.
For the compound `Cc1cccc(Cl)c1OCCNS(=O)(=O)Nc1ccc2c(c1)CN(C1CCC(=O)NC1=O)C2=O` (configuration not stated), the result was inactive.

The target is the same in another assay. The assay can be described thus: Molecular glue activity at CRBN/HiBiT-tagged GSPT1 in human MV4-11 cells assessed as induction of GSPT1 degradation at 3 uM pretreated with carfilzomib at 500 nM for 1 hr followed by compound treatment and measured after 3 hrs by immunoblot analysis. Type of assay: cell-based.
With `Cc1cccc(Cl)c1OCCNS(=O)(=O)Nc1ccc2c(c1)CN(C1CCC(=O)NC1=O)C2=O` (configuration not stated), the result was inactive.

Another assay shares this target. The assay can be described thus: Molecular glue activity at CRBN/HiBiT-tagged GSPT1 in human BE2C cells assessed as induction of GSPT1 degradation at 3 uM pretreated with carfilzomib at 500 nM for 1 hr followed by compound treatment and measured after 3 hrs by immunoblot analysis. Type of assay: cell-based.
As for `Cc1cccc(Cl)c1OCCNS(=O)(=O)Nc1ccc2c(c1)CN(C1CCC(=O)NC1=O)C2=O` (configuration not stated), the result was inactive.

For a further assay, the system named is MV4-11. The assay can be described thus: Downregulation of GSPT1 protein abundance in human MV4-11 cells at 3 uM measured after 3 hrs by proteomics analysis. Type of assay: functional, cell-based.
As to `Cc1cccc(Cl)c1OCCNS(=O)(=O)Nc1ccc2c(c1)CN(C1CCC(=O)NC1=O)C2=O` (configuration not stated), the outcome was Active.

The next assay has as its system MV4-11. In words: Downregulation of GSPT2 protein abundance in human MV4-11 cells at 3 uM measured after 3 hrs by proteomics analysis. Type of assay: functional, cell-based.
On to `Cc1cccc(Cl)c1OCCNS(=O)(=O)Nc1ccc2c(c1)CN(C1CCC(=O)NC1=O)C2=O` (configuration not stated), for which the result was Active.

The next assay addresses DNA-binding protein Ikaros (Homo sapiens) (UniProt Q13422). The assay can be described thus: Induction of cHiBiT-tagged IKZF1 degradation in human MV4-11 cells. Type of assay: cell-based.
With `Cc1cccc(Cl)c1OCCNS(=O)(=O)Nc1ccc2c(c1)CN(C1CCC(=O)NC1=O)C2=O` (configuration not stated), the outcome was Active.

A further assay shares this target. In words: Induction of IKZF1 degradation in human MV4-11 cells at 3 uM measured after 3 hrs by immunoblot analysis. Type of assay: cell-based.
Take `Cc1cccc(Cl)c1OCCNS(=O)(=O)Nc1ccc2c(c1)CN(C1CCC(=O)NC1=O)C2=O` (configuration not stated): the result was Active.
